The text below walks through data of patent US11470828B2, “Rodent model of mood disorders” (REGENERON PHARMACEUTICALS, INC., priority 2019, dated 2022).

Structures are written as SMILES. Several values for one entry are separate records, joined by “and”; a condition that tells them apart may be missing. Equal values may be shown once. Read-outs that look alike come from different tables or passages of the source.

For this experiment, the system named is GPR156^E533D/E533D mice. The following applies: for Effect on impaired swim phenotype (ability to perform 6-minute swim test): GPR156^E533D/E533D mice, Fluoxetine 10 mg/kg i.p. daily for 9 weeks. How it is done:
Mice were placed in a 5 liter clear plastic beaker (25×18 cm diameter) filled with 4 liters of 23-25° C. tap water to ensure mice cannot touch the bottom of the flask even with their tail. Four animals were recorded simultaneously using an ANY-maze™ video-tracking system (Stoelting Co.). Data were recorded for 6 minutes. Flask were separated by 3 sided white plastic partitions (40 cm high×25 cm wide). Swim test was recorded for 6 minutes. Recordings were set up to start automatically if there was motion in the flask so that recorded times are specific for each individual mouse.
The 6 minutes recording was broken into three time segments (0-100 seconds, 101-200 second and last […]) to get a better sampling of behaviors across time.
Main data points analyzed for the FST were swim time, time mobile, time immobile, speed, distance traveled, rearing in the swim zone, mobile episodes and immobile episodes. Immobility is defined as 60% of total body mass being immobile for 2 seconds. This parameter allows for small movements of hind legs and feet to maintain balance and or to tread water without be considered actively swimming.
Mice were tested for a 6 minute forced swim test weekly before and after daily treatment with intraperitoneal injection of Fluoxetine 10 mg/kg for […]. Total time of swim test seconds) before and after daily treatment with Fluoxetine was recorded. […] Data were expressed as mean±SEM for each animal group.
To test whether Fluoxetine could reverse the impaired swim test phenotype, GPR156^hum/hum and GPR156^E533D/E533D mice were treated with Fluoxetine 10 mg/kg (i.p) daily for 6 days/week for 9 weeks. […] Therefore, mice were subjected to a swim test (baseline) and animals able to perform the 6 minutes swim test were excluded from the study. The remaining mice were then split into 2 groups, treated and untreated with Fluoxetine.
For this study, mice were subjected to a swim test (baseline) and animals able to perform the 6 minutes swim test were excluded from the study.

`CNCCC(Oc1ccc(C(F)(F)F)cc1)c1ccccc1` (stereo not drawn) [Fluoxetine]: the “Effect on impaired swim phenotype (ability to perform 6-minute swim test)” value is given as “improves the impaired swim phenotype”. Besides, the “Percentage of mice achieving the swim test” value (GPR156^E533D/E533D mice (0/13 at baseline), Fluoxetine 10 mg/kg i.p. daily 6 days/week, after 9 weeks, males and females combined) is 53% and 61%. Further, under “listed as fluoxetine”, the “Effect on impaired swim phenotype (ability to perform 6-minute swim test)” value is recorded as “improved on their ability to perform the swim test”. Further, the “Percentage of females able to successfully perform the 6 minutes swim test” value (female mice homozygous for E533D, Fluoxetine 10 mg/kg i.p. daily, after 4 weeks (5 out of 10)) is listed as 50%. The “Percentage of GPR156^E533D/E533D mice that achieved the test” value (following 4-9 weeks of treatment with Fluoxetine 10 mg/kg, i.p., daily, none able prior to treatment) is reported as “Fluoxetine (10 mg/kg, i.p., daily), 53%”. For the same compound, the “Percentage of males able to successfully perform the 6 minutes swim test” value (male mice homozygous for E533D, Fluoxetine 10 mg/kg i.p. daily, after 4 weeks (5 out of 8)) was determined as 62.5%.
